According to ChEMBL document CHEMBL5463725, “Data for DCP probe BAY-277” (2023):
Active and inactive are the calls of the source. The rule behind the calls is not given here.

Columns and labels:
[1] = molecular target: Carbonic anhydrase 2 (Homo sapiens) (UniProt P00918); experiment: Inhibition of Carbonic Anhydrase II at 10.0 µM in the Eurofins Panlabs Safety Screen; details: Compound concentration 10.0 uM
[2] = molecular target: Sigma intracellular receptor 2 (Homo sapiens, UniProt Q5BJF2); details: Compound concentration 10.0 uM
Histamine H3 receptor = Histamine H3 receptor (Homo sapiens, UniProt Q9Y5N1); details: Compound concentration 10.0 uM
[3] = molecular target: Hepatocyte growth factor receptor (Homo sapiens) (UniProt P08581); experiment: Inhibition of Met(h) at 10.0 µM in the Eurofins Kinase panel; details: Compound concentration 10.0 uM
D(3) dopamine receptor = D(3) dopamine receptor (Homo sapiens, UniProt P35462); experiment: Inhibition of Dopamine D3 at 10.0 µM in the Eurofins Panlabs Safety Screen; details: Compound concentration 10.0 uM
[4] = molecular target: T1, Alpha-2C adrenergic receptor (Homo sapiens) (UniProt P18825); details: Compound concentration 10.0 uM
T1 sequence (whole entry): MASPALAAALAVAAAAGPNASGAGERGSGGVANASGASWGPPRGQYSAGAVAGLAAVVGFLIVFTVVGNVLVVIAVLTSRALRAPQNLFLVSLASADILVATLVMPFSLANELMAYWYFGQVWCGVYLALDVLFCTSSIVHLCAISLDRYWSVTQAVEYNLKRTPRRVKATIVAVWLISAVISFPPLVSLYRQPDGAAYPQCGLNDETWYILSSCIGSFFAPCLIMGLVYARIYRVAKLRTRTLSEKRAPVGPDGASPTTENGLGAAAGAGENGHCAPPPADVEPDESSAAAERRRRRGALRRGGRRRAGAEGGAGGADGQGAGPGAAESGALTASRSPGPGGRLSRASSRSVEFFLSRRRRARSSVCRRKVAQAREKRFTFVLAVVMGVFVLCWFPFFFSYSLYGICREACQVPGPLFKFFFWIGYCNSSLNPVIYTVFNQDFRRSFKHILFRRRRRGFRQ

[5] = molecular target: Glutamate NMDA receptor (Rattus norvegicus) (UniProt P35439+Q00959+Q00960+Q00961+Q62645+Q8VHN2+Q9R1M7); experiment: Inhibition of Glutamate, NMDA, Agonism at 10.0 µM in the Eurofins Panlabs Safety Screen; assay type: protein-complex assay; details: Compound concentration 10.0 uM
[6] = molecular target: Methionine aminopeptidase 2 (Homo sapiens, UniProt P50579); experiment: Degradation in HT1080 cells (CE) (Capillary electrophoresis (CE)); assay type: functional, cell-based; details: ht-1080
[7] = molecular target: Nitric oxide synthase 1 (Homo sapiens) (UniProt P29475); experiment: Inhibition of Nitric Oxide Synthase, Neuronal (nNOS) at 10.0 µM in the Eurofins Panlabs Safety Screen; details: Rattus norvegicus; Compound concentration 10.0 uM
[8] = molecular target: Cannabinoid receptor 2 (Homo sapiens) (UniProt P34972); experiment: Inhibition of Cannabinoid CB2 at 10.0 µM in the Eurofins Panlabs Safety Screen; details: Compound concentration 10.0 uM
[9] = molecular target: 5-hydroxytryptamine receptor 5A (Homo sapiens) (UniProt P47898); details: Compound concentration 10.0 uM
[10] = molecular target: Glutamate receptor 2 (Homo sapiens) (UniProt P42262); experiment: Inhibition of Glutamate, AMPA at 10.0 µM in the Eurofins Panlabs Safety Screen; details: Rattus norvegicus; Compound concentration 10.0 uM
[11] = molecular target: Androgen receptor (Homo sapiens) (UniProt P10275); experiment: Inhibition of Androgen (Testosterone) at 10.0 µM in the Eurofins Panlabs Safety Screen; details: Compound concentration 10.0 uM
[12] = molecular target: Beta-1 adrenergic receptor (Homo sapiens) (UniProt P08588); experiment: Inhibition of Adrenergic beta1 at 10.0 µM in the Eurofins Panlabs Safety Screen; details: Compound concentration 10.0 uM
[13] = molecular target: Adenosine Transporter (Cavia porcellus) (UniProt H0V4R7+H0UUG1+H0V3Z5); experiment: Inhibition of Transporter, Adenosine at 10.0 µM in the Eurofins Panlabs Safety Screen; assay type: protein assay; details: Compound concentration 10.0 uM
[14] = molecular target: T2, Muscarinic acetylcholine receptor M4 (Homo sapiens) (UniProt P08173); experiment: Inhibition of Muscarinic M4 at 10.0 µM in the Eurofins Panlabs Safety Screen; details: Compound concentration 10.0 uM
T2 sequence (whole entry): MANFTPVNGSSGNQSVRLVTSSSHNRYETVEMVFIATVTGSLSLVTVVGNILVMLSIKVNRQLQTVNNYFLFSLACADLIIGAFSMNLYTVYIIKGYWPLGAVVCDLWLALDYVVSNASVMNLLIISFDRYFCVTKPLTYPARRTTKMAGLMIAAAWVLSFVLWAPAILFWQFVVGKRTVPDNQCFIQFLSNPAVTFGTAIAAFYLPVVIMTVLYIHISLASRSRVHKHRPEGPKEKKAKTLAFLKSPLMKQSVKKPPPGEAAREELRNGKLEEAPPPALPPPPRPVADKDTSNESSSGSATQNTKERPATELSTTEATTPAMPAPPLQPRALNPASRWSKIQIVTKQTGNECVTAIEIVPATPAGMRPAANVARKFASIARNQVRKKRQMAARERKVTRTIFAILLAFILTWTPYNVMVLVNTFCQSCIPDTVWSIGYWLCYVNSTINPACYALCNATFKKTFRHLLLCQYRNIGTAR

[15] = molecular target: Mu-type opioid receptor (Homo sapiens) (UniProt P35372); experiment: Inhibition of Opiate µ(OP3, MOP) at 10.0 µM in the Eurofins Panlabs Safety Screen; details: Compound concentration 10.0 uM
[16] = molecular target: T3, Muscarinic acetylcholine receptor M1 (Homo sapiens) (UniProt P11229); experiment: Inhibition of Muscarinic M1 at 10.0 µM in the Eurofins Panlabs Safety Screen; details: Compound concentration 10.0 uM
T3 sequence (whole entry): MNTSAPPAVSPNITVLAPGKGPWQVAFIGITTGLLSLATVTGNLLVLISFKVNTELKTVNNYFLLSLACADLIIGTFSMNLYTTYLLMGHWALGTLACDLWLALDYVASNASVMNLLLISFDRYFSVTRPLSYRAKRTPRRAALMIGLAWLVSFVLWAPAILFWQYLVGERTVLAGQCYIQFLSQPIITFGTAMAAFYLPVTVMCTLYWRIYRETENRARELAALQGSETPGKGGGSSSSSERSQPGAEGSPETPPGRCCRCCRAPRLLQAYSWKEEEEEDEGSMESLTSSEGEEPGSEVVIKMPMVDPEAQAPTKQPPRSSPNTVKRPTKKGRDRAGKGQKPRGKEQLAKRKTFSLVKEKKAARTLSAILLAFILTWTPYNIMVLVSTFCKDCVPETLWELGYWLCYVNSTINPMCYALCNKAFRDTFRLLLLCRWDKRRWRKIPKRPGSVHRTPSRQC

[17] = molecular target: GABA-A receptor; anion channel (Rattus norvegicus) (UniProt O09028+P15431+P18506+P18508+P19969+P20236+P23574+P23576+P28471+P28473+P30191+P62813+P63079+P63138+Q91ZM7+Q9ES14); details: Compound concentration 10.0 uM
[18] = molecular target: Delta-type opioid receptor (Homo sapiens) (UniProt P41143); experiment: Inhibition of Opiate delta1 (OP1, DOP) at 10.0 µM in the Eurofins Panlabs Safety Screen; details: Compound concentration 10.0 uM
[19] = molecular target: D(2) dopamine receptor (Homo sapiens) (UniProt P14416); experiment: Inhibition of Dopamine D2S at 10.0 µM in the Eurofins Panlabs Safety Screen; details: Compound concentration 10.0 uM
D(2) dopamine receptor (Homo sapiens), sequence (P14416 whole entry): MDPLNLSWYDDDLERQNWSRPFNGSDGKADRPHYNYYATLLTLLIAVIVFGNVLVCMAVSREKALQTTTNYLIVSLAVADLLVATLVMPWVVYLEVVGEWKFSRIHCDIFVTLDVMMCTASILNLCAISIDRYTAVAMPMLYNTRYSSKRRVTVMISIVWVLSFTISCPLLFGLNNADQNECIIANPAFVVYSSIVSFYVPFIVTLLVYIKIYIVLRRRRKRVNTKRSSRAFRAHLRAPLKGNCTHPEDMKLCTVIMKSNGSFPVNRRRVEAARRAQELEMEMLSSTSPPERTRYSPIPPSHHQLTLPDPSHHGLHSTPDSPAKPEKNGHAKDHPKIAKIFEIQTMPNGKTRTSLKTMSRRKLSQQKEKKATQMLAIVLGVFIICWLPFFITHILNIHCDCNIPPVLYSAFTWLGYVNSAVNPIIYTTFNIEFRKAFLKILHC

Sigma intracellular receptor 2, sequence (Q5BJF2 whole entry): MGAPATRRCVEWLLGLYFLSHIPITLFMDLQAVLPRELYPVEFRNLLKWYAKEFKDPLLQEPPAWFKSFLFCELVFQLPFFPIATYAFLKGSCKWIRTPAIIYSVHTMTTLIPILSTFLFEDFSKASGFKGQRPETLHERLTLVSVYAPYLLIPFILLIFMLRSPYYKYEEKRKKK
Histamine H3 receptor, sequence (Q9Y5N1 whole entry): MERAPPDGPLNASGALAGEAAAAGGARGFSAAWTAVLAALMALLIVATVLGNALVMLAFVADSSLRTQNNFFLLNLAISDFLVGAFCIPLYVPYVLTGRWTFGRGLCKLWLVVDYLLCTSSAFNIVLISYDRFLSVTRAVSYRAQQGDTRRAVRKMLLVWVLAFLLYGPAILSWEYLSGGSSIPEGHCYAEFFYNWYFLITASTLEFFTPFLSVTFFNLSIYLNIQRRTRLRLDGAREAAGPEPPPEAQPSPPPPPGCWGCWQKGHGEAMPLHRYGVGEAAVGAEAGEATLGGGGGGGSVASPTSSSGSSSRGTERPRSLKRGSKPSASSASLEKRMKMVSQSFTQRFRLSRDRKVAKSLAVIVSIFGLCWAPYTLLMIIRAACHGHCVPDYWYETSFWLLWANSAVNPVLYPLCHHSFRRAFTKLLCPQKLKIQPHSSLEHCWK
5-hydroxytryptamine receptor 5A (Homo sapiens), sequence (P47898 whole entry): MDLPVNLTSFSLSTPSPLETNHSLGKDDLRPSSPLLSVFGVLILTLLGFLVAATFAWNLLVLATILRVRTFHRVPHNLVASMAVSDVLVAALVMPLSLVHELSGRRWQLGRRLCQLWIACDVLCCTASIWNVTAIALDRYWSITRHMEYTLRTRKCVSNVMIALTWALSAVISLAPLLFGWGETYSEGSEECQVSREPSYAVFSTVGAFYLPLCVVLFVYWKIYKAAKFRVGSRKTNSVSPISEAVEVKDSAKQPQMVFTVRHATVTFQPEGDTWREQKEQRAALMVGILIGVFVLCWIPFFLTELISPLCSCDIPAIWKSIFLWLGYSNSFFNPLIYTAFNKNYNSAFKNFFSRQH
Beta-1 adrenergic receptor (Homo sapiens), sequence (P08588 whole entry, looked up): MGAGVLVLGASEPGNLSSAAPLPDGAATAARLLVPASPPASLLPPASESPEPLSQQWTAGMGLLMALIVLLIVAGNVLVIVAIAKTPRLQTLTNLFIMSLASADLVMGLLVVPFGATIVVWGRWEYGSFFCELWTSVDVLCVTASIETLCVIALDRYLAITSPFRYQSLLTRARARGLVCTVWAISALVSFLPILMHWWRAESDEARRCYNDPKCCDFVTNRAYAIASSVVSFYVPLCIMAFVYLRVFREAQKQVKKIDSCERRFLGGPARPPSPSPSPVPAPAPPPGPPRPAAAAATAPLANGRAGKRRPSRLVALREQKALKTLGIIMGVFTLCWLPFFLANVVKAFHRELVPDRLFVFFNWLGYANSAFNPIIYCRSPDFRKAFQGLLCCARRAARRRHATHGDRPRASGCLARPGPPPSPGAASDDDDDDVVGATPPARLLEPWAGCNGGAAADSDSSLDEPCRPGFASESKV
Hepatocyte growth factor receptor (Homo sapiens), sequence (P08581 whole entry): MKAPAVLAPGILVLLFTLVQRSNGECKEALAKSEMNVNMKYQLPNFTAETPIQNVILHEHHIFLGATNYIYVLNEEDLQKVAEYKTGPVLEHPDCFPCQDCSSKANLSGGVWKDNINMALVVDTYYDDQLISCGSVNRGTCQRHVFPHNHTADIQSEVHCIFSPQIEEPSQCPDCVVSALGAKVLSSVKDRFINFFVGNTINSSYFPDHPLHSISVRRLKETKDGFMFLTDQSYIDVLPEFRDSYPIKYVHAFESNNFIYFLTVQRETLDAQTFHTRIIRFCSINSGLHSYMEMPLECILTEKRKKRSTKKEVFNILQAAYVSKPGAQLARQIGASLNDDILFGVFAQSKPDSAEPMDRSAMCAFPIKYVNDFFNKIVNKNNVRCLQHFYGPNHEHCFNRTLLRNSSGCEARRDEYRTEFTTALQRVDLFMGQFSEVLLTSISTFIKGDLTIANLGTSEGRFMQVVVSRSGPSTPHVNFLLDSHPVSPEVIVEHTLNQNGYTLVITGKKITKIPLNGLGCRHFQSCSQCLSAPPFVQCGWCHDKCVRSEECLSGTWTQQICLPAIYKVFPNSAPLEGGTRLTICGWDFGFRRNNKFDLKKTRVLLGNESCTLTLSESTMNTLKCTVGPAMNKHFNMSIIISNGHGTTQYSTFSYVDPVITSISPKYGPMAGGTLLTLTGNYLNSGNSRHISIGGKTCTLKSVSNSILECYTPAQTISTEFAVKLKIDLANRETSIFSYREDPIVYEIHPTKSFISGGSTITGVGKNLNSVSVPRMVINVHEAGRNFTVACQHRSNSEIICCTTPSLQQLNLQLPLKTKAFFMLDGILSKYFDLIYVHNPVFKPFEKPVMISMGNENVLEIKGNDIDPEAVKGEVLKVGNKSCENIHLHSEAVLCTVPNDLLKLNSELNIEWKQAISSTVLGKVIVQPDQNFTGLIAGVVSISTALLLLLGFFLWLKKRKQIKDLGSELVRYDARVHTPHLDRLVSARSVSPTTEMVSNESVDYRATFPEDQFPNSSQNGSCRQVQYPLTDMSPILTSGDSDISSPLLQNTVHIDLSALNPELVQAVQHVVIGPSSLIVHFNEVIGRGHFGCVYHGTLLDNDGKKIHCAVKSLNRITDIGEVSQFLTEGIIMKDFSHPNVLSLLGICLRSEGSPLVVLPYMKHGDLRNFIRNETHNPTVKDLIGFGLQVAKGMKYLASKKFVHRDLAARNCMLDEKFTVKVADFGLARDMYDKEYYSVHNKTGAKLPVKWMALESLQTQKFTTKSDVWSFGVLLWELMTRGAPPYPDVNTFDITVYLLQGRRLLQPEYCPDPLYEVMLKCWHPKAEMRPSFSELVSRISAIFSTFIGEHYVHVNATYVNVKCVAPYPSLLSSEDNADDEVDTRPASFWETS
Methionine aminopeptidase 2, sequence (P50579 whole entry): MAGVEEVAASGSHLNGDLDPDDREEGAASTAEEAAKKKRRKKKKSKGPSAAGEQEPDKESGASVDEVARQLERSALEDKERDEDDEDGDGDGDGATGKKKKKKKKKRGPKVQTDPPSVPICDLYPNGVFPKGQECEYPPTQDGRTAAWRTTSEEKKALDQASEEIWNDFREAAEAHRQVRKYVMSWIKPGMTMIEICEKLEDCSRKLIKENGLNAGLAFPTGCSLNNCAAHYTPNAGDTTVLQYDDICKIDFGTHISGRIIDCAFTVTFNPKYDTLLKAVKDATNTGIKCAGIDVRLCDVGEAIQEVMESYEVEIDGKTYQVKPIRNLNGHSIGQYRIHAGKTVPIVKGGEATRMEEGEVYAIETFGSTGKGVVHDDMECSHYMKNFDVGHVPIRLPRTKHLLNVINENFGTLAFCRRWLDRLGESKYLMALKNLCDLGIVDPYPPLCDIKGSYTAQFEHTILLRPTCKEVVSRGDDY
Mu-type opioid receptor (Homo sapiens), sequence (P35372 whole entry): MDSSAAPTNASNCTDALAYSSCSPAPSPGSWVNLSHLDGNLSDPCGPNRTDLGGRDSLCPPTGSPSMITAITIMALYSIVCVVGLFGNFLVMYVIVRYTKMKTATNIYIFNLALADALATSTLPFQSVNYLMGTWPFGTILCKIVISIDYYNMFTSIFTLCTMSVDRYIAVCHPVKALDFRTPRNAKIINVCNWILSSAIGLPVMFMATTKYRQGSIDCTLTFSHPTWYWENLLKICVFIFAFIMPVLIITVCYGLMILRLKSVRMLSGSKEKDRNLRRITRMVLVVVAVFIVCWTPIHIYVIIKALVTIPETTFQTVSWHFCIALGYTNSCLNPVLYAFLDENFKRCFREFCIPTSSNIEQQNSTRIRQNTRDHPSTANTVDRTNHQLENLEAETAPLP
Delta-type opioid receptor (Homo sapiens), sequence (P41143 whole entry): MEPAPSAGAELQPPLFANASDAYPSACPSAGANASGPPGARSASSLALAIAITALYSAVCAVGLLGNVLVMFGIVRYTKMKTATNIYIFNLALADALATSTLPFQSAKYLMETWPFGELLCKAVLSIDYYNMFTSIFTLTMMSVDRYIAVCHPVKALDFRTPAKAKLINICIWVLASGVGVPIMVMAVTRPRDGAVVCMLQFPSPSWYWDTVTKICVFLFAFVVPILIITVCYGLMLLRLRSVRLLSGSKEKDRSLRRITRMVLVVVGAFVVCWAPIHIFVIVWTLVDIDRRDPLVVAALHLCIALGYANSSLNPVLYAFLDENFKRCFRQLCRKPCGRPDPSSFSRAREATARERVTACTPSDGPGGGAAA
D(3) dopamine receptor, sequence (P35462 whole entry): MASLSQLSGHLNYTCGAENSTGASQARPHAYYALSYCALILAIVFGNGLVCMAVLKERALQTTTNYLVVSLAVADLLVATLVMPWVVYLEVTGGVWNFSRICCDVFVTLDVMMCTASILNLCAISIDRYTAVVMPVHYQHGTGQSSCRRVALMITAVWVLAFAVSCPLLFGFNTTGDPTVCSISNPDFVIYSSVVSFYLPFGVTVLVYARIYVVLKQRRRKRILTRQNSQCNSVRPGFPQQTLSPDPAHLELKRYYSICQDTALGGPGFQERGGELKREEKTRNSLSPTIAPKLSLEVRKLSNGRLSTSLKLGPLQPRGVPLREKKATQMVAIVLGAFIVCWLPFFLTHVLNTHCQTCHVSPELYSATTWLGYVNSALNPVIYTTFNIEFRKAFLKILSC

O=C1CCC(N2Cc3cc(C4CCN(C(=O)CCCCCN5CCC(c6ccc(Oc7nn8cnnc8c8c7CCCC8)cc6)CC5)CC4)ccc3C2=O)C(=O)N1 (configuration not stated)
inhibition [1]: -8% | inhibition [2]: 75.9% | inhibition (Histamine H3 receptor): 100% | inhibition [3]: 22.7% | inhibition (D(3) dopamine receptor): 90% | inhibition [4]: 47.9% | inhibition [5]: 21% | DC50 [6]: 8.93 nM (active) | inhibition [7]: 9% | inhibition [8]: 14% | inhibition [9]: 10.1% | inhibition [10]: 0% | inhibition [11]: -6% | inhibition [12]: 0% | inhibition [13]: 40% | inhibition [14]: 70% | inhibition [15]: 19% | inhibition [16]: 53% | inhibition [17]: 36.6% | inhibition [18]: 0% | inhibition [19]: -8%

O=C1NCCCC1N1Cc2cc(C3CCN(C(=O)CCCCCN4CCC(c5ccc(Oc6nn7cnnc7c7c6CCCC7)cc5)CC4)CC3)ccc2C1=O (configuration not stated)
inhibition [1]: -8% | inhibition [2]: 76.4% | inhibition (Histamine H3 receptor): 91.5% | inhibition [3]: 16.9% | inhibition (D(3) dopamine receptor): 76% | inhibition [4]: 27.5% | inhibition [5]: 0% | DC50 [6]: > 1000 nM (not active) | inhibition [7]: -4% | inhibition [8]: 12% | inhibition [9]: 14% | inhibition [10]: 3% | inhibition [11]: -2% | inhibition [12]: 10% | inhibition [13]: 44% | inhibition [14]: 57% | inhibition [15]: 16% | inhibition [16]: 53% | inhibition [17]: 44.6% | inhibition [18]: 7% | inhibition [19]: 13%
